# Patent publication US4486594A, “Thiazolidine derivatives and production thereof” (Takeda Chemical Industries, Ltd., priority 1982, dated 1984)
# What was measured:
# [1] = test system: Sorbitol accumulation in sciatic nerve; test: Inhibition of sorbitol accumulation in the sciatic nerve of streptozotocin-diabetic rats; format: in vivo, Sprague-Dawley rats; settings: 25 mg/kg orally, twice a day for two days; relative to the control
# Description: (§1) Sprague-Dawley rats (male, 5-7 week old, five rats/group) were fasted for 18 hours. The rats were made diabetic by an intravenous injection of 70 mg/kg of streptozotocin (Produced by Cal Biochem) at the site of the tail under ether anesthesia. After the administration of streptozotocin, these rats were administered orally with 25 mg/kg of the test compounds (5% suspension of gum-arabica) for two days twice a day (at 9.00 a.m. and at 4.00 p.m.). During this period, these rats were allowed free access to CE-2 feedstuff (Produced by Clea Japan) and water while determining blood-sugar level of each animal. On the morning of the third day, these rats were decapitated and bled, then the lens and sciatic nerve were quickly excised. The respective contents of sorbitol in the lens and sciatic nerve were determined by the enzymatic assay method described by R. S. Clements et al., in Science, 166, p. 1007 (1969) applied to the extracts of these organs obtained by the method described by M. J. Peterson et al., in Metabolism, 28, 456 (1979).
# (§2) The results are shown in the Table below as % inhibition relative to the control. Incidentally, no significant difference in blood-sugar level was observed between the group of test animals to which the test compounds were administered and the control group of the test animals to which no test compounds were administered.
# [2] = biological target: T1, partially purified aldose reductase preparation from human placenta (Homo sapiens, UniProt P15121); test: Aldose reductase inhibitory action; format: biochemical; settings: 10^-6 M; human placenta enzyme
# T1 construct: partially purified aldose reductase preparation from human placenta; from tissue; host or cells: human placenta
# Description: Aldose reductase inhibitory action was assayed in accordance with the method disclosed by S. Haymen et al. in Journal of Biological Chemistry, Vol. 240, p. 877 (1965) and that disclosed by Jin H. Kinoshita et al. in Metabolism, Vol. 28, Nr. 4, Suppl. 1, 462 (1979). The enzyme used in the assay was a partially purified aldose reductase preparation from human placenta. The results for the respective compounds were expressed as % inhibition at the concentration of 10^-6 mole and are shown in Table 1.
# [3] = test system: Sorbitol accumulation in lens; test: Inhibition of sorbitol accumulation in the lens of streptozotocin-diabetic rats; format: in vivo, Sprague-Dawley rats; settings: 25 mg/kg orally, twice a day for two days; relative to the control
# Description: as §1, §2
# [4] = test system: mice; test: Oral acute toxicity in mice; format: in vivo
inhibition at 1 µM [2],SMILES,"Inhibition of Sorbitol Accumulation (%), Sciatic Nerve [1]","Inhibition of Sorbitol Accumulation (%), Lens [3]",oral LD50 [4]
34%,"O=C1NC(=O)C(c2ccc3c(c2)CCCCC3)S1 (centres unmarked) [Example 1, 5-(6,7,8,9-tetrahydro-5H-benzocycloheptadien-2-yl)thiazolidine-2,4-dione]",83%,65%,
30%,"O=C1NC(=O)C(c2ccc3c(c2)CCC3)S1 (centres unmarked) [Example 4, 5-(5-indanyl)thiazolidine-2,4-dione]",66%,62%,
,Cc1ccc(C2SC(=O)NC2=O)cc1C (centres unmarked) [reference compound],5%,18%,
,COc1ccc(C2SC(=O)NC2=O)cc1OC (centres unmarked) [reference compound],-2%,62%,

SMILES,inhibition at 1 µM [2],"Inhibition of Sorbitol Accumulation (%), Sciatic Nerve [1]","Inhibition of Sorbitol Accumulation (%), Lens [3]",oral LD50 [4]
"O=C1NC(=O)C(c2ccc3c(c2)CCCC3)S1 (centres unmarked) [Example 2, 5-(5,6,7,8-tetrahydro-2-naphthyl)thiazolidine-2,4-dione]",36%,79%,73%,no less than 100 mg
